The values below are quoted from earlier work in patent publication US6297239A, “Inhibitors of prenyl-protein transferase” (Merck & Co., Inc., priority 1998, dated 2001).

The structures appear in SMILES notation.

For the data set, the system named is farnesyl-protein transferase. To be noted: via inhibition of HMG-CoA reductase.

Take `CC[C@H](C)C(=O)O[C@H]1C[C@@H](C)C=C2C=C[C@H](C)[C@H](CC[C@@H]3C[C@@H](O)CC(=O)O3)[C@H]21` [lovastatin]: the “indirect inhibition of farnesyl-protein transferase in vivo” value is recorded as “Indirect inhibition”. On to `CC[C@H](C)C(=O)O[C@H]1CCC=C2C=C[C@H](C)[C@H](CC[C@@H]3C[C@@H](O)CC(=O)O3)[C@H]21` [compactin], for which the “indirect inhibition of farnesyl-protein transferase in vivo” value was “Indirect inhibition”.
